# Measured values from EP4740948A1 (Dong Wha Pharm. Co., Ltd., priority 2023, dated 2025).
# Key:
# G401 cells = assay: Cancer cell proliferation inhibition (Cell Counting Kit-8), rhabdoid tumor cell line; type: cell-based; details: 1000 nM, cultured seven to 11 days; for % inhibition rate G401: 1 µM; for inhibition at 1 µM: Homo sapiens, G-401, 264 h, read-out: % inhibition rate G401
# Procedure, shortened: (§1)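 Single 1000 nM dose of test substance, applied to cells seeded at 100–1,000 per well in 10% FBS medium, then culture for seven to 11 days. CCK-8 read-out; inhibition rate expressed as percent relative to untreated control.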
# SW-13 cells = assay: Cancer cell proliferation inhibition (Cell Counting Kit-8), adrenal cancer cell line; type: cell-based; details: Homo sapiens, SW13, 264 h, 1000 nM, cultured seven to 11 days; read-out: % inhibition rate SW-13
# Procedure, shortened: (§2)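 After plating 100 to 1,000 cells per well in medium with 10% fetal bovine serum, each line receives 1000 nM compound and is cultured for seven to 11 days. Growth inhibition is derived from CCK-8 signal compared with control cultures.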
# MKN-45 cells = assay: Cancer cell proliferation inhibition (Cell Counting Kit-8), gastric cancer cell line; type: cell-based; details: Homo sapiens, MKN-45, 264 h, 1000 nM, cultured seven to 11 days; read-out: % inhibition rate MKN -45
# Procedure, shortened: as §1
# EZH2 = EZH2 (Homo sapiens, UniProt Q15910); assay: AlphaLISA enzyme activity inhibition, EZH2; type: biochemical; details: for inhibition at 0.005 µM: 5nM test substance; for inhibition at 0.01 µM: 10nM test substance
# Sequence of EZH2 (Q15910 whole entry, species assumed): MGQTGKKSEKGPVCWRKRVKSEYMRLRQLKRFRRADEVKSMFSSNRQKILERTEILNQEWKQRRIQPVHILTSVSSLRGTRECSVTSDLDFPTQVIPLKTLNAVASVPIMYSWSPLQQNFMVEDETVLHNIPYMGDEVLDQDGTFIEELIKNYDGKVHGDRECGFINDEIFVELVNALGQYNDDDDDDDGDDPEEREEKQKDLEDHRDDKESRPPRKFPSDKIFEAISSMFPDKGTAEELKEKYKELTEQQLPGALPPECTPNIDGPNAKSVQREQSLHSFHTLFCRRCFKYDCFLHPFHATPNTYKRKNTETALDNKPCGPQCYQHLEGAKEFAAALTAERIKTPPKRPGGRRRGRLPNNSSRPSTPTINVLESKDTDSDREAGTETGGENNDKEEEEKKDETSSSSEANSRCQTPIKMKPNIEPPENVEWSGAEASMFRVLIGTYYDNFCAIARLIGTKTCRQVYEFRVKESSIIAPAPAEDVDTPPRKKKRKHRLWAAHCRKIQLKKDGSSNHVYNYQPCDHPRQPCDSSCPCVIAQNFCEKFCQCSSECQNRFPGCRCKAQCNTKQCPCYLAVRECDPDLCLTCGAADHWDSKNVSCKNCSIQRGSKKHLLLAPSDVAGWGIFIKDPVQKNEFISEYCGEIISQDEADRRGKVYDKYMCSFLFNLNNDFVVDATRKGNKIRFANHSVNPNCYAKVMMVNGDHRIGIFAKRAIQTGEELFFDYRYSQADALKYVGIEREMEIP
# Sequence of EZH2 (O75530 whole entry partner, species assumed): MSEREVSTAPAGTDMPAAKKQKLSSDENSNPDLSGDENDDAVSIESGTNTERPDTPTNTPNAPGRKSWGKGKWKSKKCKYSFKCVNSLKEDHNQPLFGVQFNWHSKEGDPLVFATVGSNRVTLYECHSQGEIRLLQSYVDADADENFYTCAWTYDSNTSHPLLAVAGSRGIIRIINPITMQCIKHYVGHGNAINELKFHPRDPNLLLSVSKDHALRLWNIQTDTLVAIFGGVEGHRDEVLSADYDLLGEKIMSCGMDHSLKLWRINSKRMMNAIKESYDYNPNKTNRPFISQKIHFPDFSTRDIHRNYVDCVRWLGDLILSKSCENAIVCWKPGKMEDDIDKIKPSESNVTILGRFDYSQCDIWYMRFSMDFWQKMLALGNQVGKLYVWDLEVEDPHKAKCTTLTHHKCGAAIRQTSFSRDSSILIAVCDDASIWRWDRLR
# Sequence of EZH2 (Q15022 whole entry partner, species assumed): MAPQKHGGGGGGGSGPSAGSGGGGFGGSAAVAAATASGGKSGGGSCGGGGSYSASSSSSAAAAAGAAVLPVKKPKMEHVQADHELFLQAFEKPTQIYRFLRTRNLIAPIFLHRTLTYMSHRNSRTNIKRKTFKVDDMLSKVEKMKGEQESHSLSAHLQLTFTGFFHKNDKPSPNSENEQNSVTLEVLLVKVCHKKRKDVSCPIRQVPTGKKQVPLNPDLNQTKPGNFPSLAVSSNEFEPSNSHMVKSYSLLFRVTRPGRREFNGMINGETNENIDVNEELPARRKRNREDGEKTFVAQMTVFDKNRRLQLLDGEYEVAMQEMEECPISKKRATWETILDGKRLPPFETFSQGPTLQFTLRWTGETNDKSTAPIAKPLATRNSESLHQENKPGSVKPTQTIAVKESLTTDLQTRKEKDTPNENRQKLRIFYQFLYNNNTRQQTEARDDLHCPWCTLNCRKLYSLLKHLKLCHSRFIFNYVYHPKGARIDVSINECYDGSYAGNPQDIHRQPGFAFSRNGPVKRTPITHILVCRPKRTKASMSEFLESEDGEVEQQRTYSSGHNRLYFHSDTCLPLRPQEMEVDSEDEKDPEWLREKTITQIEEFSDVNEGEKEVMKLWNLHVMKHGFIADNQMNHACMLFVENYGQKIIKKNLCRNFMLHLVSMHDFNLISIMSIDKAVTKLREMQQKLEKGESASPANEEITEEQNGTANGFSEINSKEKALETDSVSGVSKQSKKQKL
# Method: (§3) In order to confirm the EZH1 and/or EZH2 activity inhibitory effect of the 1,3-benzodioxole derivative compounds represented by chemical formula I of the present invention, the activity was measured using an AlphaLISA test method. The test substance dissolved in dimethylsulfoxide (DMSO) was diluted in a test solution (20 mM Tris pH 8.0, 0.1% BSA, 0.01% Triton X-100, 0.5 mM DTT) according to a final treatment concentration (5 nM or 10 nM) and mixed with EZH1 and EZH2, respectively, and then histone H3 peptide and S-adenosylmethionine (SAM) were added to initiate an enzyme reaction. An acceptor bead was added thereto after reaction for two hours and subjected to an additional reaction for one hour, after which a donor bead was added thereto. After an additional reaction for 30 minutes, the reaction was completed. An activity was measured using the Magellan program on a Spark10M instrument. DMSO was used as a control group, an inhibition rate of enzyme activity was calculated using a following equation, and the results thereof are shown in Table 1 below. [formula]
# NCI-H1299 cells = assay: Cancer cell proliferation inhibition (Cell Counting Kit-8), lung cancer cell line; type: cell-based; details: Homo sapiens, NCI-H1299, 264 h, 1000 nM, cultured seven to 11 days; read-out: % inhibition rate NCI-H129 9
# Procedure, shortened: as §2
# EZH1 = EZH1 (Homo sapiens, UniProt Q92800); assay: AlphaLISA enzyme activity inhibition, EZH1; type: biochemical; details: for inhibition at 0.005 µM: 5nM test substance; for inhibition at 0.01 µM: 10nM test substance
# Sequence of EZH1 (Q92800 whole entry, species assumed): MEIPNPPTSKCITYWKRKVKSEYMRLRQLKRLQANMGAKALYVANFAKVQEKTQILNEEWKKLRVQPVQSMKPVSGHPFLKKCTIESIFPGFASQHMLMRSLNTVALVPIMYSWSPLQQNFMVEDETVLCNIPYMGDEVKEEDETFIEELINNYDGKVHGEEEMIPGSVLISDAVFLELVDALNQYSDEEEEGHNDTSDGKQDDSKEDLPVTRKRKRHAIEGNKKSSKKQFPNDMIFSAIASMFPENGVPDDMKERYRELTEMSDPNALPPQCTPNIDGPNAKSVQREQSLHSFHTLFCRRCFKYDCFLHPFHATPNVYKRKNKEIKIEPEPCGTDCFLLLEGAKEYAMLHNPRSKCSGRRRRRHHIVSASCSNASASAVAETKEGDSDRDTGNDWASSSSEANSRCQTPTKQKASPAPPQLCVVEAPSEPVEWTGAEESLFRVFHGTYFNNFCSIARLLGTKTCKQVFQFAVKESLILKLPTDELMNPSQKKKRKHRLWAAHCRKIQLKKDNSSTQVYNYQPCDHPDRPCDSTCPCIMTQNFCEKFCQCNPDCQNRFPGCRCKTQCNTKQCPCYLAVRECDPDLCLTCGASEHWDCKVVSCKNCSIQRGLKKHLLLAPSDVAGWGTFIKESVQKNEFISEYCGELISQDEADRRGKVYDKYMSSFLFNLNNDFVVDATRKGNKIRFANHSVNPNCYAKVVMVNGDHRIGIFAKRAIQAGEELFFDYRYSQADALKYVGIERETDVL
# Sequence of EZH1 (O75530 whole entry partner, species assumed): as the sequence (O75530 whole entry partner, species assumed) above
# Sequence of EZH1 (Q15022 whole entry partner, species assumed): as the sequence (Q15022 whole entry partner, species assumed) above
# Method: as §3
# MIA-PaCa-2 cells = assay: Cancer cell proliferation inhibition (Cell Counting Kit-8), pancreatic cancer cell line; type: cell-based; details: Homo sapiens, MIA PaCa-2, 264 h, 1000 nM, cultured seven to 11 days; read-out: % inhibition rate MIA-Paca2
# Procedure, shortened: as §2
# Lovo cells = assay: Cancer cell proliferation inhibition (Cell Counting Kit-8), colorectal cancer cell line; type: cell-based; details: 1000 nM, cultured seven to 11 days; for % inhibition rate LoVo: 1 µM; for inhibition at 1 µM: Homo sapiens, LoVo, 264 h, read-out: % inhibition rate LoVo
# Procedure, shortened: as §2
Compound,inhibition at 0.005 µM (EZH2),inhibition at 0.01 µM (EZH2),inhibition at 0.005 µM (EZH1),inhibition at 0.01 µM (EZH1),% inhibition rate G401 (G401 cells),inhibition at 1 µM (SW-13 cells),inhibition at 1 µM (MKN-45 cells),inhibition at 1 µM (NCI-H1299 cells),inhibition at 1 µM (MIA-PaCa-2 cells),% inhibition rate LoVo (Lovo cells),inhibition at 1 µM (G401 cells),inhibition at 1 µM (Lovo cells)
"CSc1cc(C)[nH]c(=O)c1CNC(=O)c1cc(-c2ccc(N3CCOCC3)nc2)c2c(c1C)OC(C)(C1CCN(CC(F)(F)F)CC1)O2 (single isomer, unassigned) [Compound 62, 2,4-dimethyl-N-((6-methyl-4-(methylthio)-2-oxo-1,2-dihydropyridin-3-yl)methyl)-7-(6-morpholinopyridin-3-yl)-2-(1-(2,2,2-trifluoro)piperidin-4-yl)benzo[d][1,3]dioxole-5-carboxamide]",93.6%,99.4%,66.9%,81.8%,+++ (+++: ≥70%),30 to 70%,30 to 70%,30 to 70%,≤ 30%,+++ (+++: ≥70%),–,–
"CSc1cc(C)[nH]c(=O)c1CNC(=O)c1cc(-c2ccc(F)cc2)c2c(c1C)OC(C)([C@H]1CC[C@H](N(C)C)CC1)O2 (relative stereo) [Compound 10, 2-(trans-4-(dimethylamino)cyclohexyl)-7-(4-fluorophenyl)-2,4-dimethyl-N-((6-methyl-4-(methylthio)-2-oxo-1,2-dihydropyridin-3-yl)methyl)benzo[d][1,3]dioxole-5-carboxamide]",98.7%,–,82.8%,–,–,30 to 70%,≤ 30%,≤ 30%,≤ 30%,–,30 to 70%,≥ 70%
"CSc1cc(C)[nH]c(=O)c1CNC(=O)c1cc(-c2ccc(N3C[C@@H](C)O[C@@H](C)C3)nc2)c2c(c1C)OC(C)(C1CCN(CCc3ccccc3)CC1)O2 (single isomer, unassigned) [Compound 55]",58.2%,93.3%,31.6%,52.2%,+++ (+++: ≥70%),30 to 70%,30 to 70%,30 to 70%,≤ 30%,–,–,≥ 70%

# Now from value to compound, other results behind:
inhibition at 0.005 µM (EZH2),inhibition at 0.01 µM (EZH2),inhibition at 0.005 µM (EZH1),inhibition at 0.01 µM (EZH1),Compound,% inhibition rate G401 (G401 cells),inhibition at 1 µM (SW-13 cells),inhibition at 1 µM (MKN-45 cells),inhibition at 1 µM (NCI-H1299 cells),inhibition at 1 µM (MIA-PaCa-2 cells),% inhibition rate LoVo (Lovo cells),inhibition at 1 µM (G401 cells),inhibition at 1 µM (Lovo cells)
99.5%,99.6%,79%,96.2%,"CCN1CCN(c2ncc(-c3cc(C(=O)NCc4c(SC)cc(C)[nH]c4=O)c(C)c4c3OC(C)(C3CCN(CC(F)(F)F)CC3)O4)cn2)CC1 (single isomer, unassigned) [Compound 76, 7-(2-(4-ethylpiperazin-1-yl)pyrimidin-5-yl)-2,4-dimethyl-N-((6-methyl-4-(methylthio)-2-oxo-1,2-dihydropyridin-3-yl)methyl)-2-(1-(2,2,2-trifluoroethyl)piperidin-4-yl)benzo[d][1,3]dioxole-5-carboxamide]",+++ (+++: ≥70%),30 to 70%,30 to 70%,≤ 30%,≤ 30%,+++ (+++: ≥70%),–,–
96.7%,100%,32.5%,68.8%,CSc1cc(C)[nH]c(=O)c1CNC(=O)c1cc(-c2ccc(N3C[C@@H](C)O[C@@H](C)C3)nc2)c2c(c1C)OC(C)([C@H]1CC[C@H](N(C)CCCC(F)(F)F)CC1)O2 (stereo partly drawn) [Compound 113],–,30 to 70%,≤ 30%,≤ 30%,≤ 30%,–,≥ 70%,≥ 70%
